From patent publication US12404241B2 (Celgene Corporation, priority 2018, dated 2025) come the findings set out here.

Where a name gives a salt, the structure may show the parent alone. Bounds are passed on as bounds.

The test addresses T1, AR (Homo sapiens, UniProt P10275).
T1 construct: endogenous in cells; host or cells: VCaP cells
T1 sequence (P10275 1-920): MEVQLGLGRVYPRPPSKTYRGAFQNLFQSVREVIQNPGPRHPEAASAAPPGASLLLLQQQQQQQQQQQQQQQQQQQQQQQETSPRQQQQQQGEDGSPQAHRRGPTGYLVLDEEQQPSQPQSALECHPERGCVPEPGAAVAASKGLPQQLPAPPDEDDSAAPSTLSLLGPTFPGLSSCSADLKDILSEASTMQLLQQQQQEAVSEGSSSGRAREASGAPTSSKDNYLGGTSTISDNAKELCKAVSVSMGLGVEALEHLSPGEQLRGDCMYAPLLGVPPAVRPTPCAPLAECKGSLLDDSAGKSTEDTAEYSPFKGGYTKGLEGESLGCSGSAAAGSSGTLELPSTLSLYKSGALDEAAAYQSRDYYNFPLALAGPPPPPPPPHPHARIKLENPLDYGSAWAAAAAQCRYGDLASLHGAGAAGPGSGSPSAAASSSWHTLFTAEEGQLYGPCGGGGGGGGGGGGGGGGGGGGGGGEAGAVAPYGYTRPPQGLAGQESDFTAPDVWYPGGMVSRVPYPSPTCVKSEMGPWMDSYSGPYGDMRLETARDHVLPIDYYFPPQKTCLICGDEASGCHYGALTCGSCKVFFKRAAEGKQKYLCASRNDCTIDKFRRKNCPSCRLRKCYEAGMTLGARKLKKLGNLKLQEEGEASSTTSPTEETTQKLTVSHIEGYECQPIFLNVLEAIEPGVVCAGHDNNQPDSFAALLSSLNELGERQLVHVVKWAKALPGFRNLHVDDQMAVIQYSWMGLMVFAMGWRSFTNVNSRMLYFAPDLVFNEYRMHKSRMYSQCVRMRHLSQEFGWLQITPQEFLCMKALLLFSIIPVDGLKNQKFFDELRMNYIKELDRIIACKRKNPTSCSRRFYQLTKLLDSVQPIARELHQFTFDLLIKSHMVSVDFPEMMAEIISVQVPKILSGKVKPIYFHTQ
Kind of test: VCAP AR Degradation Assay. The test is classed as cell-based. The conditions noted are these: for Y (AR degradation efficiency, % of DMSO control): class symbols *; for DC50: class symbols A-C, read-out: DC50. The procedure, abridged:
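VCaP cells treated 24 h at 37 °C with a 10-point 1:3 series (top 5 μM final; 0.1% DMSO control). Lysate AR measured by sandwich ELISA, normalized to DMSO as percent of control; DC50, EC50 and lowest AR level (Y) from four-parameter logistic fit.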

By DC50 is commonly meant the concentration giving 50% degradation.

On to `C[C@@H]1CN(CCOc2ccc(N3C(=S)N(c4ccc(C#N)c(Cl)c4)C(=O)C3(C)C)cc2C2CC2)C[C@H](C)N1CC(=O)Nc1cc(Cl)cc(NC2CCC(=O)NC2=O)c1` (stereo partly drawn) [Example 220, 2-((2S,6R)-4-(2-(4-(3-(3-chloro-4-cyanophenyl)-5,5-dimethyl-4-oxo-2-thioxoimidazolidin-1-yl)-2-cyclopropylphenoxy)ethyl)-2,6-dimethylpiperazin-1-yl)-N-(3-chloro-5-(2,6-dioxopiperidin-3-ylamino)phenyl)acetamide], for which the “Y (AR degradation efficiency, % of DMSO control)” value was “** (25%<Y<=35%)” and the DC50 is < 100 nM.
On to `CC(C)c1cc(N2C(=S)N(c3cnc(C#N)c(C(F)(F)F)c3)C(=O)C2(C)C)ccc1OCCN1CCN(CC(=O)Nc2cccc(NC3CCC(=O)NC3=O)c2)[C@H](C)C1` (stereo partly drawn) [Example 163, 2-((R)-4-(2-(4-(3-(6-cyano-5-(trifluoromethyl)pyridin-3-yl)-5,5-dimethyl-4-oxo-2-thioxoimidazolidin-1-yl)-2-isopropylphenoxy)ethyl)-2-methylpiperazin-1-yl)-N-(3-(2,6-dioxopiperidin-3-ylamino)phenyl)acetamide], for which the “Y (AR degradation efficiency, % of DMSO control)” value is listed as “* (0<Y<=25%)” and the half-maximal degradation concentration (DC50) lay within 100 to 500 nM.
Turning to `CC(C)c1cc(N2C(=S)N(c3ccc(C#N)c(C(F)(F)F)c3)C(=O)C23CCC3)cnc1OCCN1C[C@@H](C)N(CC(=O)Nc2cccc(NC3CCC(=O)NC3=O)c2)[C@@H](C)C1` (stereo partly drawn) [Example 227, 2-((2S,6R)-4-(2-(5-(7-(4-cyano-3-(trifluoromethyl)phenyl)-8-oxo-6-thioxo-5,7-diazaspiro[3.4]octan-5-yl)-3-isopropylpyridin-2-yloxy)ethyl)-2,6-dimethylpiperazin-1-yl)-N-(3-(2,6-dioxopiperidin-3-ylamino)phenyl)acetamide], the “Y (AR degradation efficiency, % of DMSO control)” value was “* (0<Y<=25%)” and the half-maximal degradation concentration (DC50) was < 100 nM.
As to `CC(C)c1cc(N2C(=S)N(c3ccc(C#N)c(Cl)c3)C(=O)C2(C)C)ccc1OCCN1C[C@@H](C)N(CC(=O)Nc2cc(F)cc(NC3CCC(=O)NC3=O)c2)[C@@H](C)C1` (stereo partly drawn) [Example 251, 2-((2S,6R)-4-(2-(4-(3-(3-chloro-4-cyanophenyl)-5,5-dimethyl-4-oxo-2-thioxoimidazolidin-1-yl)-2-isopropylphenoxy)ethyl)-2,6-dimethylpiperazin-1-yl)-N-(3-(2,6-dioxopiperidin-3-ylamino)-5-fluorophenyl)acetamide], the “Y (AR degradation efficiency, % of DMSO control)” value is listed as “* (0<Y<=25%)” and the DC50 was < 100 nM.
`CCc1cc(N2C(=S)N(c3ccc(C#N)c(C(F)(F)F)c3)C(=O)C2(C)C)ccc1OCCN1C[C@H](C)N(CC(=O)Nc2cc(Cl)cc(NC3CCC(=O)NC3=O)c2)C[C@@H]1C` (stereo partly drawn) [Example 126, N-(3-chloro-5-(2,6-dioxopiperidin-3-ylamino)phenyl)-2-((2S,5S)-4-(2-(4-(3-(4-cyano-3-(trifluoromethyl)phenyl)-5,5-dimethyl-4-oxo-2-thioxoimidazolidin-1-yl)-2-ethylphenoxy)ethyl)-2,5-dimethylpiperazin-1-yl)acetamide]: the “Y (AR degradation efficiency, % of DMSO control)” value is “* (0<Y<=25%)” and the DC50 was < 100 nM.
`CCc1cc(N2C(=S)N(c3ccc(C#N)c(C(F)(F)F)c3)C(=O)C2(C)C)ccc1OCCN1CCN(CC(=O)Nc2cccc(NC3CCC(=O)NC3=O)c2)[C@H](CO)C1` (stereo partly shown) [Example 50]: the “Y (AR degradation efficiency, % of DMSO control)” value was “*** (35%<Y<50%)” and the DC50 lay within 500 to 1000 nM.
For the molecule `CC(C)c1cc(N2C(=S)N(c3cnc(C#N)c(C(F)(F)F)c3)C(=O)C23CCC3)ccc1OCCN1C[C@@H](C)N(CC(=O)Nc2cc(C#N)cc(NC3CCC(=O)NC3=O)c2)[C@@H](C)C1` (stereo partly drawn) [Example 210, N-(3-cyano-5-(2,6-dioxopiperidin-3-ylamino)phenyl)-2-((2S,6R)-4-(2-(4-(7-(6-cyano-5-(trifluoromethyl)pyridin-3-yl)-8-oxo-6-thioxo-5,7-diazaspiro[3.4]octan-5-yl)-2-isopropylphenoxy)ethyl)-2,6-dimethylpiperazin-1-yl)acetamide], the “Y (AR degradation efficiency, % of DMSO control)” value is given as “* (0<Y<=25%)” and the DC50 is < 100 nM.
In the same order, the values of `C[C@@H]1CN(CCOc2ncc(N3C(=S)N(c4ccc(C#N)c(C(F)(F)F)c4)C(=O)C34CCC4)cc2C2CC2)C[C@H](C)N1CC(=O)Nc1cccc(NC2CCC(=O)NC2=O)c1` (stereo partly drawn) [Example 229, 2-((2S,6R)-4-(2-(5-(7-(4-cyano-3-(trifluoromethyl)phenyl)-8-oxo-6-thioxo-5,7-diazaspiro[3.4]octan-5-yl)-3-cyclopropylpyridin-2-yloxy)ethyl)-2,6-dimethylpiperazin-1-yl)-N-(3-(2,6-dioxopiperidin-3-ylamino)phenyl)acetamide] are “* (0<Y<=25%)” and < 100 nM.
In the same order, the values of `CC(F)(F)c1cc(N2C(=S)N(c3cnc(C#N)c(C(F)(F)F)c3)C(=O)C2(C)C)ccc1OCCN1CCN(CC(=O)Nc2cc(Cl)cc(NC3CCC(=O)NC3=O)c2)CC1` (stereo not shown) [Example 62, N-(3-chloro-5-(2,6-dioxopiperidin-3-ylamino)phenyl)-2-(4-(2-(4-(3-(6-cyano-5-(trifluoromethyl)pyridin-3-yl)-5,5-dimethyl-4-oxo-2-thioxoimidazolidin-1-yl)-2-(1,1-difluoroethyl)phenoxy)ethyl)piperazin-1-yl)acetamide] are “* (0<Y<=25%)” and < 100 nM.
On to `CC(C)c1cc(N2C(=S)N(c3ccc(C#N)c(C(F)(F)F)c3)C(=O)C2(C)C)ccc1OCCN1C[C@@H](C)N(CC(=O)Nc2cc(Cl)cc(NC3CCC(=O)NC3=O)c2)[C@@H](C)C1` (stereo partly drawn) [Example 208, N-(3-chloro-5-(2,6-dioxopiperidin-3-ylamino)phenyl)-2-((2S,6R)-4-(2-(4-(3-(4-cyano-3-(trifluoromethyl)phenyl)-5,5-dimethyl-4-oxo-2-thioxoimidazolidin-1-yl)-2-isopropylphenoxy)ethyl)-2,6-dimethylpiperazin-1-yl)acetamide], for which the “Y (AR degradation efficiency, % of DMSO control)” value is given as “* (0<Y<=25%)” and the 50% degradation concentration (DC50) was 100 to 500 nM.
For `CCc1cc(N2C(=S)N(c3ccc(C#N)c(C(F)(F)F)c3)C(=O)C2(C)C)ccc1OCCN1CCN(CC(=O)Nc2cccc(N[C@H]3CCC(=O)NC3=O)c2)CC1` [Example 27, hydrochloride], the “Y (AR degradation efficiency, % of DMSO control)” value is recorded as “* (0<Y<=25%)” and the DC50 was < 100 nM.
For the molecule `CC(C)c1cc(N2C(=S)N(c3ccc(C#N)c(C(F)(F)F)c3)C(=O)C2(C)C)ccc1OCCN1C[C@@H](C)N(CC(=O)Nc2cc(NC3CCC(=O)NC3=O)ccc2F)[C@@H](C)C1` (stereo partly drawn) [Example 217, 2-((2S,6R)-4-(2-(4-(3-(4-cyano-3-(trifluoromethyl)phenyl)-5,5-dimethyl-4-oxo-2-thioxoimidazolidin-1-yl)-2-isopropylphenoxy)ethyl)-2,6-dimethylpiperazin-1-yl)-N-(5-(2,6-dioxopiperidin-3-ylamino)-2-fluorophenyl)acetamide], the “Y (AR degradation efficiency, % of DMSO control)” value was “* (0<Y<=25%)” and the DC50 was 500 to 1000 nM.
The corresponding values for `CCc1cc(N2C(=S)N(c3cnc(C#N)c(C(F)(F)F)c3)C(=O)C2(C)C)ccc1OCCN1C[C@@H]2CC[C@H]1CN2CC(=O)Nc1cc(Cl)cc(NC2CCC(=O)NC2=O)c1` (stereo partly drawn) [Example 179, N-(3-chloro-5-(2,6-dioxopiperidin-3-ylamino)phenyl)-2-((1S,4S)-5-(2-(4-(3-(6-cyano-5-(trifluoromethyl)pyridin-3-yl)-5,5-dimethyl-4-oxo-2-thioxoimidazolidin-1-yl)-2-ethylphenoxy)ethyl)-2,5-diazabicyclo[2.2.2]octan-2-yl)acetamide] are “** (25%<Y<=35%)” and 100 to 500 nM.
For `C[C@@H]1CN(CC(=O)Nc2cccc(NC3CCC(=O)NC3=O)c2)[C@H](C)CN1CCOc1ccc(N2C(=S)N(c3cnc(C#N)c(C(F)(F)F)c3)C(=O)C2(C)C)cc1C(C)(F)F` (stereo partly drawn) [Example 244, 2-((2R,5R)-4-(2-(4-(3-(6-cyano-5-(trifluoromethyl)pyridin-3-yl)-5,5-dimethyl-4-oxo-2-thioxoimidazolidin-1-yl)-2-(1,1-difluoroethyl)phenoxy)ethyl)-2,5-dimethylpiperazin-1-yl)-N-(3-(2,6-dioxopiperidin-3-ylamino)phenyl)acetamide], the “Y (AR degradation efficiency, % of DMSO control)” value was “* (0<Y<=25%)” and the half-maximal degradation concentration (DC50) was < 100 nM.
